{"source": "patent US9115061B2", "about": "“Naphthalene-based inhibitors of anti-apoptotic proteins” (BURNHAM INSTITUTE FOR MEDICAL RESEARCH, priority 2007, dated 2015)", "key": {"Mcl-1": {"target": "Mcl-1 (Homo sapiens (Human), UniProt Q07820)", "sequence (Q07820 whole entry)": "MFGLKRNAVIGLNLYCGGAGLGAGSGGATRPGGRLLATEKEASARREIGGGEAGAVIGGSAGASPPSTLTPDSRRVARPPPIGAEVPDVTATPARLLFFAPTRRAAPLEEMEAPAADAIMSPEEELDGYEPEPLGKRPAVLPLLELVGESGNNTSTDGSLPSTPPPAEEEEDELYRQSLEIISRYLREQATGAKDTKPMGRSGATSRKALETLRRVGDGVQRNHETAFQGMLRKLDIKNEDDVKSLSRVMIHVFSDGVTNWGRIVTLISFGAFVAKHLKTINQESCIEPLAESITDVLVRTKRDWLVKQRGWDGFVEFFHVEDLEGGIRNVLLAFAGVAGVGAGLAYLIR", "settings": "cited from earlier work"}, "H1299": {"tested_on": "H1299", "settings": "cited from earlier work"}, "GST-BCL-2": {"target": "GST-BCL-2 (Homo sapiens (Human), UniProt P10415)", "sequence (P10415 whole entry)": "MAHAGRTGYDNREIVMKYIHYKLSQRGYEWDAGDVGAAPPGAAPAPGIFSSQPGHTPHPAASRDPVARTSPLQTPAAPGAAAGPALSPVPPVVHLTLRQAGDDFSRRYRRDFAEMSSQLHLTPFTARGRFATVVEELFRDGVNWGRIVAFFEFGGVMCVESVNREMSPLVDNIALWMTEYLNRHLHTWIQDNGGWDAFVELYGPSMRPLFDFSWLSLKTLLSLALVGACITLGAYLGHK", "test": "Fluorescence polarization assay (FITC-Bim BH3 peptide)", "type": "binding", "settings": "read-out: EC50 FPA BCL-2", "experimental": "After 30 min incubation at room temperature, the polarization values in millipolarization units were measured at excitation/emission wavelengths of 480/535 nm with a multilabel plate reader (PerkinElmer). IC50 was determined by fitting the experimental data to a sigmoidal dose-response nonlinear regression model (SigmaPlot 10.0.1, Systat Software, Inc., San Jose, Calif., USA). Data reported are mean of three independent experiments ±standard error (SE). Performance of BCL-2 and Mcl-1 FPA are similar. […] Fluorescence polarization was measured after 10 min."}, "H460 cell line": {"tested_on": "H460 cell line", "test": "Cell viability, ATP-LITE assay", "type": "cell-based, human", "settings": "72 hours, ATP-LITE", "experimental": "(§1) The activity of the compounds against human cancer cell lines (PC3ML, H460, H1299, RS11846) were assessed by using the ATP-LITE assay (PerkinElmer). All cells were seeded in either F12 or RPMI1640 medium with 5 mM L-glutamine supplemented with 5% fetal bovine serum (Mediatech Inc.), penicillin and streptomycin (Omega). For maintenance, cells were cultured in 5% FBS. Cells plated into 96 well plates at varying initial densities depending on doubling time. H460 and H1299 plated at 2000 cells/well, A549 and PC3 at 3000 cells/well, and RS118456S at 10,000 cells/well. Compounds were diluted to final concentrations with 0.1% DMSO. Prior to dispensing compounds onto cells, fresh 5% media was placed into wells. Administration of compounds occurred 24 hours after seeding into the fresh media. Cell viability was evaluated using ATP-LITE reagent (PerkinElmer) after 72 hours of treatment. Data were normalized to the DMSO control-treated cells using Prism version 5.01 (Graphpad Software)."}, "PC3ML cells": {"tested_on": "PC3ML cells", "test": "Cell viability, ATP-LITE assay", "type": "cell-based, human", "settings": "72 hours, ATP-LITE", "experimental": "as §1"}, "RS11846 cell line [1]": {"tested_on": "RS11846 cell line", "test": "Cell viability, ATP-LITE assay", "type": "cell-based, human", "settings": "72 hours", "experimental": "as §1"}, "RS11846 cell line [2]": {"tested_on": "RS11846 cell line", "test": "Apoptosis, Annexin V and propidium iodide assay", "type": "cell-based, human", "settings": "1-2 days; read-out: RS11846 EC50 (Annexin V- and propidium iodide assay)"}, "Plasma stability": {"test": "Plasma stability", "type": "in vitro ADME, rat", "settings": "rat plasma, 1 h, 37.5° C.", "experimental": "A 20 μL aliquot of a 10 mM solution in DMSO of the test compound was added to […] of heparinized rat plasma (Lampire, P1-150N) to obtain a 100 μM final solution. The mixture was incubated for 1 h at 37.5° C. Aliquots of 100 μL were taken (0, 30 min, 1 h) and diluted with 200 μL of MeOH containing internal standard."}, "Balb/c mice": {"tested_on": "Balb/c mice", "test": "Oral toxicity study in normal Balb/c mice", "type": "in vivo, mouse", "experimental": "Compounds or vehicle control were dosed 15 times over 3 weeks, giving compounds daily for 5 consecutive days (Monday-Friday), resting on weekends.\nBoth compounds were provided by NCI-DTP (RAID-program). Compounds were dissolved in 100% sesame oil just before oral administration. Vehicle-control consisted of corresponding concentration of ascorbic acid suspended in 100% sesame oil.\n(§2) Spleens were removed and weighed.\nWhole blood (250 μl) was collected in EDTA-coated glass tubes (purple top; MICROTAINER Brand Tube with EDTA, Catalogue #365973, Becton, Dickinson and Company, New Jersey 07417-1885) via either cardiac puncture or severing the brachial artery of anesthetized mice. After thorough mixing, specimens were analyzed using a VetScan HM2 (Abaxis Inc., Union City, Calif. 94587) hematology analyzer, measuring white blood cell count (WBC), red blood cell count (RBC), platelet (PLT) count, leukocyte differential (including % lymphocyte, % monocyte and % granulocyte), hematocrit (Ht), and hemoglobin (Hb).\n(Eppendorf Centrifuge 5415C) for 2 minutes to separate serum from cells and fibrin clot. The resulting serum specimens were analyzed using an automated blood chemistry analyzer (“COBAS MIRA Classic”; Roche, Indianapolis, Ind. 46250-0414) to measure alanine aminotransferase (ALT) and aspartate aminotransferase AST), blood urea nitrogen (BUN), and […].\nStomach and intestines were examined also imaged by ultrasound for evidence of dilation, an indication of GI toxicity. Briefly, mice were anesthetized using a mixture of isofluorane (5%) and oxygen gas (95%), restrained on a heated table using Aquagel Lubrication Gel (Parker Laboratories, Inc., Fairfield, N.J. 07004), and abdominal hair was removed with a chemical depilation agent (Nair™ Hair Removal, Church & Dwight Co., Inc., Princeton, N.J. 08543). Aquasonic 100 Ultrasound Transmission Gel (Parker Laboratories, Inc., Fairfield, N.J. 07004) was applied to the abdomen prior to imaging using a high-frequency probe to assess gas and intestinal distention.\nImmediately after ultrasound imaging, electrocardiogram (ECG) analysis of anesthetized mice was performed using a MP150 Biopack System."}, "380 cell line": {"tested_on": "380 cell line", "test": "Apoptosis induction in NHL B-cell lines, Annexin V-FITC/PI", "type": "cell-based", "settings": "48 hours, relative to DOHH2 and RS11846", "experimental": "(§3) After 48 hours of incubation, % viability was determined by FACSort after staining cells by the use of an Annexin V-FITC/PI Apoptosis Detection kit (BioVision Inc.). Viable cells were defined by Annexin V-negative, PI-negative cells."}, "DOHH2 cell line": {"tested_on": "DOHH2 cell line", "test": "Apoptosis induction in NHL B-cell lines, Annexin V-FITC/PI", "type": "cell-based", "settings": "48 hours; read-out: IC50, % viability DOHH2", "experimental": "as §3"}, "RS11846 cell line [3]": {"tested_on": "RS11846 cell line", "test": "Apoptosis induction in NHL B-cell lines, Annexin V-FITC/PI", "type": "cell-based", "settings": "48 hours; read-out: IC50, % viability RS11846", "experimental": "as §3"}, "[4]": {"tested_on": "murine B-cells from BCL-2 transgenic mice", "test": "Viability of cultured splenocytes, Annexin V-FITC/PI", "type": "cell-based", "settings": "18 hours; read-out: IC50, induction of apoptosis in cultured B-cells of BCL-2 transgenic mouse", "experimental": "(§4) Spleens were excised from sacrificed mice and cell suspensions treated with a mouse erythrocyte lysing kit (R & D Systems). Total splenocyte count was determined by typan blue dye exclusion assays using hemocytometers. The percentage of B-lymphocytes was determined by fluorescence activated cell sorter (FACS) analysis SACS-CANTO, Bectin-Dickinson Inc., Mountain View, Calif.) following staining cells with Phyco-Erytrin (PE)-conjugated anti-CD19 or -B220 antibodies (Becton Dickinson, San Jose, Calif. 95131).\nAfter 18 hours of incubation, % viability of splenocytes was determined by FACSort after staining cells by the use of an Annexin V-FITC/PI Apoptosis Detection kit (BioVision Inc.). Viable cells were defined by Annexin V-negative, PI-negative cells."}, "BCL-2 transgenic mice": {"tested_on": "BCL-2 transgenic mice", "test": "Oral efficacy study in BCL-2 transgenic mice (splenomegaly)", "type": "in vivo, mouse", "experimental": "The transgene was propagated on the Balb/c background.\nas §2, §4\nRepresentative data are shown by FIGS. 11A and 11B."}, "[5]": {"test": "Liver microsomal stability", "settings": "rat liver microsomes, 4 μM, 60 min"}, "[6]": {"test": "PAMPA (parallel artificial membrane permeation assay)", "settings": "PAMPA, pH 7.2, 8 h"}, "MCF7 cells": {"tested_on": "MCF7 cells", "test": "XTT dye reduction assay", "type": "cell-based, human", "settings": "three days", "experimental": "(§5) The effects of the compounds on viability of tumor cells in culture were monitored by using XTT assays with MCF7 and ZR75-1 cell lines. MCF7 cells were grown in DMEM containing 10% fetal bovine serum, penicillin/streptomycin, supplemented with 10^−10 M insulin, 1 mM sodium pyruvate and glutamine. ZR75-1 cells were grown in RPMI containing 10% fetal bovine serum, penicillin/streptomycin, supplemented with HEPES buffer, 1 mM sodium pyruvate and glutamine. Cells were regularly tested for mycoplasma contamination. Cells were seeded triplicates at an initial cell density of 1,000 cells per well. Blank wells received no cells.\n(§6) Relative numbers of viable cells was determined by XTT assay. Briefly, in a 96-well plate, we added 50 μl of a mixture of 1 mg/ml of XTT (2,3-bis(2-methoxy-4-nitro-5-sulfophenyl)-5-[(phenylamino)carbonyl]-2H-tetrazolium hydroxide) (Polysciences, Washington, Pa.) containing 0.025 mM PMS (phenazine methosulfate) to each well. The 96-well plates were reincubated for an additional 4 hours to allow for XTT formazan production. Then, the contents of each plate were mixed and optical densities were determined at a wavelength of 450 nm (OD450). Net OD450 was determined after subtracting OD450 of blank wells. Low-passage HeLa cells (between passage number 10 and 20) were transfected with pcDNA3-BCL-XL or control pcDNA3 plasmids using Lipofectamine Plus reagent (Invitrogen) and selected in medium containing 800 μg/ml of G418. Immunoblot analysis of BCL-XL was accomplished as previously described."}, "ZR75-1 cells": {"tested_on": "ZR75-1 cells", "test": "XTT dye reduction assay", "type": "cell-based, human", "settings": "three days", "experimental": "as §5, §6"}, "BCL-XL": {"target": "BCL-XL (Homo sapiens (Human), UniProt Q07817)", "sequence (Q07817 whole entry)": "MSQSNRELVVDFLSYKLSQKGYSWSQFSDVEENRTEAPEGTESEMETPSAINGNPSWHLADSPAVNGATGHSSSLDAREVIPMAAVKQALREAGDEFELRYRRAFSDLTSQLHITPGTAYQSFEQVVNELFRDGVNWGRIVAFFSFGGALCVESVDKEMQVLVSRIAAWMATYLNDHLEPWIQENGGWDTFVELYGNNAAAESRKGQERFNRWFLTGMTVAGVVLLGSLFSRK", "test": "Fluorescence polarization assay with fluorescein-labeled Bad peptide", "type": "binding", "settings": "Table 5", "experimental": "FP A assays were conducted with a fluorescein-labeled Bad peptide (NL […] Corporation, Dublin, Calif.) using a LJL Analyst HT Molecular Devices Co., Sunnyvale, Calif.). […] The tubes were incubated for 5 minutes at room temperature and 20 μl each of reaction mixture was transferred to 96-well black PS, HE Microplate (LJL Biosystems Co). All assays were performed in quadruplicate, with blank wells receiving no Gossypol. […] Controls included dose-responses measurements in absence of the proteins, to assess any interactions between the compounds and the FITC-BH3 peptide. Eventual effects were taken into account by subtraction."}}, "data": [{"smiles": "CN(C)CC[C@H](CSc1ccccc1)Nc1ccc(S(=O)(=O)NC(=O)c2ccc(N3CCN(Cc4ccccc4-c4ccc(Cl)cc4)CC3)cc2)cc1[N+](=O)[O-]", "note": "[ABT-737]", "values": [{"measurement": "effectiveness against Mcl-1", "setting": "Mcl-1", "result": "not effective"}, {"measurement": "killing of Mcl-1 overexpressing cell lines such as H1299", "setting": "H1299", "result": "not effective in killing"}]}, {"smiles": "Cc1cc2c(C(C)C)c(O)c(O)cc2c(O)c1-c1c(C)cc2c(C(C)C)c(O)c(O)cc2c1O", "note": "[Apogossypol, apogossypol]", "values": [{"measurement": "EC50", "setting": "GST-BCL-2", "result": 2800, "unit": "nM"}, {"measurement": "EC50", "setting": "H460 cell line", "result": 2800, "unit": "nM"}, {"measurement": "EC50", "setting": "H460 cell line; listed as apogossypol", "result": 3400, "unit": "nM"}, {"measurement": "EC50", "setting": "PC3ML cells", "result": 10300, "unit": "nM"}, {"measurement": "EC50", "setting": "RS11846 cell line [1]", "result": 5000, "unit": "nM"}, {"measurement": "EC50", "setting": "RS11846 cell line [2]", "result": 8600, "unit": "nM"}, {"measurement": "Plasma Stability (T = 1 hr)", "setting": "Plasma stability", "result": 53, "unit": "%"}, {"measurement": "mice found dead", "setting": "Balb/c mice; […] oral, day 18 of treatment", "result": "One of 6"}, {"measurement": "general condition of mice", "setting": "Balb/c mice; […] oral, three weeks", "result": "remained active and apparently healthy"}, {"measurement": "toxicity, preliminary maximum tolerated dose (MTD) studies", "setting": "Balb/c mice; orally or by intraperitoneal injection", "result": "less toxic than gossypol"}, {"measurement": "sensitivity of 380 cell line", "setting": "380 cell line", "result": "slightly more resistant"}, {"measurement": "IC50", "setting": "DOHH2 cell line", "result": "~3000", "unit": "nM"}, {"measurement": "IC50", "setting": "RS11846 cell line [3]", "result": "~3000", "unit": "nM"}, {"measurement": "IC50", "setting": "[4]", "result": "1000 to 2000", "unit": "nM"}, {"measurement": "tolerability, low dose", "setting": "BCL-2 transgenic mice; 0.06 mmol/kg oral, QDX5 for 3 weeks", "result": "well tolerated"}, {"measurement": "shrinkage of spleen, low dose", "setting": "BCL-2 transgenic mice; 0.06 mmol/kg oral, QDX5 for 3 weeks, wet weight and B-cell count", "result": "induced shrinkage of spleen to a significant extent"}, {"measurement": "spleen size, high dose", "setting": "BCL-2 transgenic mice; […] daily oral", "result": "reduced roughly by half"}, {"measurement": "tolerability, high dose", "setting": "BCL-2 transgenic mice; […] oral, QDX5 for 3 weeks", "result": "well tolerated"}, {"measurement": "Microsomal Stability (T = 1 hr)", "setting": "[5]", "result": 60, "unit": "%"}, {"measurement": "Cell Permeability", "setting": "[6]", "result": "Low"}]}, {"smiles": "O=c1c(O)cccc2cc(O)c(O)c(O)c12", "note": "[Purpurogallin]", "values": [{"measurement": "IC50, cell viability MCF7", "setting": "MCF7 cells", "result": "did not show appreciable activity"}, {"measurement": "IC50, cell viability ZR75-1", "setting": "ZR75-1 cells", "result": "did not show appreciable activity"}, {"measurement": "IC50", "setting": "BCL-XL", "result": 2200, "unit": "nM"}]}]}
